Read-outs that look alike come from different tables or passages of the source.

Here are results for 10 compounds from patent US20260137698A1, “CYCLIN-DEPENDENT KINASE 7 INHIBITORS” (JOINT STOCK COMPANY «BIOCAD», priority 2022, published 2026).

One data set deals with CDK13/Cyclin K (Homo sapiens, UniProt Q14004). The data set is described as follows: Inhibition of CDK13/Cyclin K kinase activity (ADP-Glo). It is filed as biochemical. Here is the method:
Measurements were carried out in a 5 μl reaction volume using a 384-well plate (Corning Inc., order no. 4513). The analyzed substances were titrated from 50 μM in increments of 4 at 11 concentration points in a normal strength kinase buffer A (Thermo Fisher Scientific Inc, cat. no. PV3189) supplemented with DTT (Sigma, orde. no. 646563-10X.5ML) and prepared with water (Panreac, order no. 701074). Kinase was diluted in an analogous buffer, mixed with test compounds in plate wells and preincubated for 10 minutes at 25° C. Following incubation, a mixture of reaction substrate (CDKtide (SignalChem, order no. C06-58) or Histone H1 (SignalChem, order no. H10-54N) or PDKtide (SignalChem, order no. P10-58) and ATP (SignalChem, order no. V915B) prepared on a normal strength kinase buffer A was added. 1% solution of dimethyl sulfoxide (DMSO) (Sigma-Aldrich, order no. D2438) in the reaction volume was used as a negative control. The final concentrations of all reaction components are shown in Table 5. The plate was centrifuged at 400 rcf (Eppendorf, 5804 R) for 1 minute and incubated for 40-60 minutes at 25° C. The amount of ATP consumed in the kinase reaction was then measured using the ADP-Glo™ detection system. Luminescence signal was measured using Spark 20M tablet multifunction reader (Tecan Group Ltd, Switzerland). IC50 value was calculated using Magellan 7.2 (Tecan Group Ltd, Switzerland) by approximating experimental points by four-parameter model with the optimization by Levenberg-Marquardt:
[formula] • where A is the upper asymptote; D is the lower asymptote; C is IC50, half-maximal inhibitory concentration of kinase, nM; B is the curvature (slope).
A general note: In ADP-Glo the light output rises with the ADP produced.

Data set [1] can be described thus: Microsomal stability in rat liver microsomes (RLM). It is filed as in vitro ADME. Particulars: rat liver microsomes 0.5 mg/ml, 1 μM compound, NADPH. How it is done:
(§1) The procedure for investigating the metabolism of selected compounds was carried out in microsomal fractions of the liver (of rats, mice, humans) in the presence of a phase I metabolism cofactor (NADPH).
(§2) The rate of enzymatic decomposition of the compound in liver microsomes in in vitro analysis was determined by keeping a reaction mixture comprising 0.5 mg/ml of pooled human, rat or mouse liver microsomes, 1 μM test compound, 1.5 mM […] (Carbosynth, UK, cat. no. NN108711101) and 1.5 mM magnesium chloride in 0.1 M sodium phosphate buffer (pH 7.4) in a solid-state thermostat at 37° C. (XenoTech, USA, order no. H2610, cat. no. R1000, cat. no. M1000). Incubation was carried out in three replicates.
(§3) To determine the stability of compounds under sample preparation conditions, an aliquot in two replicates with the test compound and a microsomal fraction devoid of the NADPH cofactor, which was incubated for 40 minutes at 37° C.
(§4) Reactions were stopped at 0, 10, 20, 30 and 40 min time points by way of adding an ice mixture of acetonitrile:methanol (3:1) comprising an internal standard.
(§5) Samples were then centrifuged to remove the precipitated protein, supernatants were analyzed using HPLC-MS/MS to determine in vitro clearance (CLint) of the compounds. The Agilent 6410 mass spectrometer (Agilent, USA) combined with the Agilent 1260 Infinity II HPLC liquid chromatograph (Agilent, USA) and a cooling autosampler controlled by MassHunter software (Agilent, USA) was used as an HPLC-MS/MS system. Chromatographic analysis was performed on a C18 reversed-phase HPLC column (Agilent, Waters or equivalent) in a gradient elution mode in a system of mobile phases: 0.1% formic acid in water/0.1% formic acid in acetonitrile, flow rate: 0.5 ml/min, column T=35° C. Mass spectrometric detection was performed with electrospray ionization in multiple reaction monitoring mode. Precursor ions, fragment ions and collision energies for each substance were selected experimentally.
(§6) A graph of dependence of the logarithmic ratio between substance's peak area and internal standard's peak area vs time was built. The dependent coefficient of this line corresponded to the elimination rate constant k, on the basis of which the in vitro clearance CLint was calculated:
(§7) Based on resulting in vitro clearance CLint values, the microsomal stability of the selected compounds for humans, rats and mice was concluded.
Background: Liver microsomes are a subcellular fraction often used to study metabolism.

Data set [2] in a line: Microsomal stability in mouse liver microsomes (MLM). It is filed as in vitro ADME. Particulars: mouse liver microsomes 0.5 mg/ml, 1 μM compound, NADPH. Here is the method:
as §1, §2, §3, §4, §5, §6, §7

The mark [3] stands for this setting: mean of multiple measurement series, ATP 10 μM, read-out: CDK13/Cyclin K IC50.
[4] abbreviates: mean value from several measurements, read-out: IC50 CDK13/Cyclin K.

CDK13/Cyclin K, sequence (Q14004 whole entry): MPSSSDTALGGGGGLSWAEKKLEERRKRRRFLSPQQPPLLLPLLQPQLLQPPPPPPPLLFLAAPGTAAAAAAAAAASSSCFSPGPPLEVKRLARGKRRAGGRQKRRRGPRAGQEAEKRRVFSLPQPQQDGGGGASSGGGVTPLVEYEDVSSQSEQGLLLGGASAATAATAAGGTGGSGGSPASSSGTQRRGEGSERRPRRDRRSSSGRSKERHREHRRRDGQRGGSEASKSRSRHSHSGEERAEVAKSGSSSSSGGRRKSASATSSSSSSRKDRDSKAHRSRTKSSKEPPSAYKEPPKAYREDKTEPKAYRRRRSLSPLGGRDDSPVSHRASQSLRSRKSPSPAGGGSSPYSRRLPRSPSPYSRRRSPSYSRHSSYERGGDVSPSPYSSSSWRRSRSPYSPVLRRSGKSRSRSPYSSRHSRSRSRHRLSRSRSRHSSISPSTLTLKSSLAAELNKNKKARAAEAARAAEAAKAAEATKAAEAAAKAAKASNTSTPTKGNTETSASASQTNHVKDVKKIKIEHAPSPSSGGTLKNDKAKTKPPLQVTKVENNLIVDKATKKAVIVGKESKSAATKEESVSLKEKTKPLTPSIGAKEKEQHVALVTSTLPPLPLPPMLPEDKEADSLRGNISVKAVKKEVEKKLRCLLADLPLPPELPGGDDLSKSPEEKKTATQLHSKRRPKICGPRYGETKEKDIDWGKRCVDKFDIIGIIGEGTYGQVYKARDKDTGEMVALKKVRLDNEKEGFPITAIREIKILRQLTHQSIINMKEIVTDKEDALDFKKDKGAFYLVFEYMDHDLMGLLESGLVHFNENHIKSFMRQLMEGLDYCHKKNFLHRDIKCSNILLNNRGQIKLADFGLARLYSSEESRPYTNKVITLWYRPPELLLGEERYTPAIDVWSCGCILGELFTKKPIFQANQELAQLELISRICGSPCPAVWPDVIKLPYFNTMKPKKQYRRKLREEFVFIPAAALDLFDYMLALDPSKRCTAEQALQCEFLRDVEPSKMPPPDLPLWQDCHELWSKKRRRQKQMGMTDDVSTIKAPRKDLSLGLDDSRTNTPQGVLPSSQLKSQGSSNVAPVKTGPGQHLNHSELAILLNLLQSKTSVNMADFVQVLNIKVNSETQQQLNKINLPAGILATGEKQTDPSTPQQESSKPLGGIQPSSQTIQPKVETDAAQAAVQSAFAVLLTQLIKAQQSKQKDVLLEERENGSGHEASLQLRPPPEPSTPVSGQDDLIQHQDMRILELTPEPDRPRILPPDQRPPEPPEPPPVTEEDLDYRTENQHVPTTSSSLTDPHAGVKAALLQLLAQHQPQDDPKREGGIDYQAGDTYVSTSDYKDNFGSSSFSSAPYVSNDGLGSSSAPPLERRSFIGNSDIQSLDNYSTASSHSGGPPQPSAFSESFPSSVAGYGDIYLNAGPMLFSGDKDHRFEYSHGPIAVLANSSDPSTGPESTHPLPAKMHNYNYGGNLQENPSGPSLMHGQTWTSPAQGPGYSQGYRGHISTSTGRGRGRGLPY
CDK13/Cyclin K, sequence (O75909 whole entry partner): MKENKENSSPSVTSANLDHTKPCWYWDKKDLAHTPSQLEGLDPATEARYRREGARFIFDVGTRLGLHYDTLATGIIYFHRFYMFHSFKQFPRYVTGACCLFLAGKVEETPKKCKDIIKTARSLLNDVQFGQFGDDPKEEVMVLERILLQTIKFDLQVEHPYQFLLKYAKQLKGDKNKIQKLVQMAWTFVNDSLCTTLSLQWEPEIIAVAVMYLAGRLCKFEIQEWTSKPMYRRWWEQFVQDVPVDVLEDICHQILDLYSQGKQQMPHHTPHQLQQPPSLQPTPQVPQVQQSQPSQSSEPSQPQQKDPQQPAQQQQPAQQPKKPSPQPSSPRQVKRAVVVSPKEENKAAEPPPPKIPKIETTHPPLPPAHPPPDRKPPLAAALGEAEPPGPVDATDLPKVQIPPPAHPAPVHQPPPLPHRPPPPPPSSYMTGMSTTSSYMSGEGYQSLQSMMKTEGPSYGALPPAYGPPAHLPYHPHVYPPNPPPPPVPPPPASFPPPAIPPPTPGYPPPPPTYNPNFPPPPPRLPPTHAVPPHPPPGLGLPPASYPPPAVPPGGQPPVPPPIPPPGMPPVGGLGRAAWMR

In the case of `CC(C)N1CCCc2c(-c3nc(N[C@H]4CCC5(CC5)NC4)ncc3C(F)(F)F)c[nH]c2C1=O` [CDK7_1277, 3-(2-{[(6S)-4-azaspiro[2.5]octan-6-yl]amino}-5-(trifluoromethyl)py-rimidin-4-yl)-7-(propan-2-yl)-1H,4H,5H,6H,7H, 8H-pyrrolo[2,3-c]azepin-8-one], the IC50 at CDK13/Cyclin K (setting [3]) was 0.425 µM; on CDK13/Cyclin K (setting [4]), more than 0.2 µM. Also, the “RLM Clint” value in data set [1] is reported as “B (50 μl/(min · mg of protein) > Clint > 20 μl/(min · mg of protein))”. For the same compound, the “MLM Clint” value in data set [2] was “B (50 μl/(min · mg of protein) > Clint > 20 μl/(min · mg of protein))”.

Consider `CC1(C)CC[C@H](Nc2ncc(C(F)(F)F)c(-c3c[nH]c4c3CCCN(CC3CC3)C4=O)n2)CN1` [CDK7_1227, 7-(cyclopropylmeth-yl)-3-(2-{[(3S)-6,6-dimethylpiperidin-3-yl]amino}-5-(trifluoromethyl)py-rimidin-4-yl)-1H,4H,5H,6H,7H, 8H-pyrrolo[2,3-c]azepin-8-one], for which the “RLM Clint” value in data set [1] was “A (Clint < 20 μl/(min · mg of protein))”.

Consider `CCN1CCCc2c(-c3nc(N[C@H]4CCC(C)(C)NC4)ncc3C(F)(F)F)c[nH]c2C1=O` [CDK7_1259, 3-(2-{[(3S)-6,6-dimethylpiperidin-3-yl]amino}-5-(trifluoromethyl)py-rimidin-4-yl)-7-ethyl-1H,4H,5H,6H,7H, 8H-pyrrolo[2,3-c]azepin-8-one], for which the “RLM Clint” value in data set [1] is “A (Clint < 20 μl/(min · mg of protein))”.

Consider `CN1CCCc2c(-c3nc(N[C@H]4CCC(C)(C)NC4)ncc3C(F)(F)F)c[nH]c2C1=O` [CDK7_1187, 3-(2-{[(3S)-6,6-dimethylpiperidin-3-yl]amino}-5-(trifluoromethyl)py-rimidin-4-yl)-7-methyl-1H,4H,5H,6H,7H, 8H-pyrrolo[2,3-c]azepin-8-one], for which the IC50 on CDK13/Cyclin K (setting [3]) is 0.081 µM; on CDK13/Cyclin K (setting [4]) it was 0.05 to 0.2 µM. For the same compound, the “RLM Clint” value in data set [1] is on record as “A (Clint < 20 μl/(min · mg of protein))”. The “MLM Clint” value in data set [2] is “A (Clint < 20 μl/(min · mg of protein))”.

As for `O=C1c2[nH]cc(-c3nc(N[C@H]4CCC5(CC5)NC4)ncc3C(F)(F)F)c2CCCN1C1CC1` [CDK7_1276, 3-(2-{[(6S)-4-azaspiro[2.5]octan-6-yl]amino}-5-(trifluoromethyl)py-rimidin-4-yl)-7-cyclopropyl-1H,4H,5H,6H,7H, 8H-pyrrolo[2,3-c]azepin-8-one], the IC50 on CDK13/Cyclin K (setting [3]) is 0.152 µM; at CDK13/Cyclin K (setting [4]), 0.05 to 0.2 µM. Also, the “RLM Clint” value in data set [1] is recorded as “B (50 μl/(min · mg of protein) > Clint > 20 μl/(min · mg of protein))”. Besides, the “MLM Clint” value in data set [2] is recorded as “B (50 μl/(min · mg of protein) > Clint > 20 μl/(min · mg of protein))”.

For `CC1(C)CC[C@H](Nc2ncc(C(F)(F)F)c(-c3c[nH]c4c3CCCN(C3CC3)C4=O)n2)CN1` [CDK7_1225, 7-cyclopropyl-3-(2-{[(3S)-6,6-dimethylpiperidin-3-yl]amino}-5-(trifluoromethyl)py-rimidin-4-yl)-1H,4H,5H,6H,7H, 8H-pyrrolo[2,3-c]azepin-8-one], the values for the IC50 at CDK13/Cyclin K (setting [3]) and at CDK13/Cyclin K (setting [4]) were 0.203 µM and more than 0.2 µM, respectively. Moreover, in data set [1], the “RLM Clint” value was “A (Clint < 20 μl/(min · mg of protein))”. Moreover, the “MLM Clint” value in data set [2] is “A (Clint < 20 μl/(min · mg of protein))”.

As to `CC(C)N1CCCc2c(-c3nc(N[C@H]4CCC(C)(C)NC4)ncc3C(F)(F)F)c[nH]c2C1=O` [CDK7_1229, 3-(2-{[(3S)-6,6-dimethylpiperidin-3-yl]amino}-5-(trifluoromethyl)py-rimidin-4-yl)-7-(propan-2-yl)-1H,4H,5H,6H,7H, 8H-pyrrolo[2,3-c]azepin-8-one], the IC50 is 0.242 µM on CDK13/Cyclin K (setting [3]) and more than 0.2 µM on CDK13/Cyclin K (setting [4]). In addition, the “RLM Clint” value in data set [1] was “A (Clint < 20 μl/(min · mg of protein))”. The “MLM Clint” value in data set [2] was “A (Clint < 20 μl/(min · mg of protein))”.

Turning to `Cn1cc(-n2ccc3c(-c4nc(N[C@H]5CCC(C)(C)NC5)ncc4C(F)(F)F)c[nH]c3c2=O)cn1` [CDK7_1123, 3-(2-{[(3S)-6,6-dimethylpiperidin-3-yl]amino}-5-(trifluoromethyl)py-rimidin-4-yl)-6-(1-methyl-1H-pyrazol-4-yl)-1H,6H,7H-pyrrolo[2,3-c]pyridin-7-one], the results for the IC50 on CDK13/Cyclin K (setting [3]) and at CDK13/Cyclin K (setting [4]) were 0.025 µM and 0.005 to 0.05 µM, respectively.

Turning to `O=C1c2[nH]cc(-c3nc(NC4CCCNC4)ncc3C(F)(F)F)c2CCCN1C1CC1` (centres unmarked) [CDK7_1188], the “RLM Clint” value in data set [1] was “A (Clint < 20 μl/(min · mg of protein))”.

Turning to `CN1CCCc2c(-c3nc(N[C@H]4CCCNC4)ncc3C(F)(F)F)c[nH]c2C1=O` [CDK7_953, 7-methyl-3-(2-{[(3S)-piperidin-3-yl]amino}-5-(trifluoromethyl)py-rimidin-4-yl)-1H,4H,5H,6H,7H, 8H-pyrrolo[2,3-c]azepin-8-one], the IC50 was 0.02 µM on CDK13/Cyclin K (setting [3]) and 0.005 to 0.05 µM at CDK13/Cyclin K (setting [4]). The “RLM Clint” value in data set [1] is on record as “A (Clint < 20 μl/(min · mg of protein))”. Further, the “MLM Clint” value in data set [2] is on record as “A (Clint < 20 μl/(min · mg of protein))”.
